From patent publication US12404232B2, “Compounds and compositions for intracellular delivery of therapeutic agents” (ModernaTX, Inc., priority 2015, dated 2025)

Tests used:
[1] = test system: mice; test: Cytokine induction (IL-6, IP-10) in mice after intravenous administration; format: in vivo; design: IL-6 / IP-10: unit not given here; details: 0.5 mpk; for IL-6 / IP-10: 6 hours; for Cytokine expression (pg/ml) IL-6 (6 h) / Cytokine expression (pg/ml) IP-10 (6 h): hEPO mRNA
Procedure, shortened: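 Nanoparticle compositions given intravenously to mice at 0.5 mpk; serum cytokine concentrations measured at 6 hours, with MC3 formulation and PBS as comparators.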

[2] = test system: rats; test: hEPO expression in rats after intravenous administration; format: in vivo, rat; details: for hEPO expression: rat
Experimental: (§1) The expression of hEPO and cytokine induction in rats intravenously administered a nanoparticle composition at a dose of 2.0 mpk was measured at 6 h.
(§2) The expression of hEPO in rats intravenously administered a nanoparticle composition at a dose of 0.2 mpk or 2.0 mpk was measured at 6 hours. Table 16 summarize the ratio of hEPO expression levels using various nanoparticle compositions as compared to the hEPO expression level using MC3 formulation and the lipid levels in the liver measured 48 hours after administration, as described above. Tables 17 and 18 summarize the lipid levels in the liver and spleen measured 48 hours after administration of Compounds 28, 33, 53, and 54. Liver and spleen levels represent the average values calculated for 3 rats in each group. As is shown in Tables 17 and 18, less than 10% of Compounds 28, 33, 53, and 54 remained in the liver after 48 hours, while greater than 60% of MC3 remained.
(§3) Table 19 summarizes the hEPO expression, IP-10 induction, liver and spleen levels, and alanine aminotransferase (ALT) and aspartate aminotransferase (AST) measured upon intravenous administration of formulations including Compounds 48, 49, and 50 to rat at 0.2 and 2 mpk and hEPO mRNA. hEPO concentrations were measured 6 hours after administration, while cytokine induction and liver and spleen levels were measured 48 hours after administration. hEPO and IP-10 concentrations are presented in pg/ml, while liver levels are provided in ng/g. ALT and AST levels are presented in international units.
(§4) The expression of hEPO induced by intravenous administration to rats of nanoparticle compositions at various doses was measured at 2, 4, 6, 8, 24, and 48 hour time points. FIGS. 3-6 respectively summarize the hEPO expression measured upon intravenous administration of formulations including Compounds 26, 18, 25, and MC3 to rat at various doses. The lipid levels of Compound 26 in the liver after 48 hours were about 19%.
The expression of hEPO and lipid levels in the liver and spleen in rats intravenously administered a nanoparticle composition at a dose of 0.2 mpk was measured at various timepoints. Compounds 18 and 25 were selected for comparison with MC3. Lipids were formulated according to the standard MC3 formulation described above. Rats were administered intravenously a single 0.2 mpk dose and expression monitored at 0.25, 0.5, 1, 2, 4, 8, 24, and 48 hours after administration. […]

[3] = test system: rats; test: Cytokine induction (IP-10) in rats after intravenous administration; format: in vivo; details: rat, 6 hours after administration of hEPO nanoparticle compositions, 2.0 mpk
Experimental: as §1, §3

[4] = test system: rats; test: Residual lipid levels in liver and spleen of rats (UPLC-MS quantification); format: in vivo, rat; details: for Lipid level in liver / Lipid level in spleen: rat, i.v., 0.2 mpk; for % Lipid Remaining in liver, 48 h* 2 mpk: assuming 300 g rat and 15 g liver
Experimental: At 48 h liver tissue was harvested for lipid quantification. To pre-weighed tissues, Milli-Q water was added (900 μL water per 100 mg tissue). Tissues were homogenized using an Omni probe homogenizer until uniform. 50 μL of samples and matrix calibration standards were aliquoted into a 96-well plate. 50 μL of blank matrix for matrix blanks and control blanks were aliquoted. 400 μL IS spiking solution were manually added to all samples except matrix blanks. 400 μL of 50:50 ACN:IPA were manually added to matrix blanks. The plate was covered and the samples vortexed and centrifuged for 5 minutes at >3000 rpm. 200 μL of the samples were transferred into a clean 96-well plate for analysis. Samples were analyzed on a Waters Acquity UPLC using a Higgins Analytical Clipeus C8 column ([…], 30×2.1 mm) and a gradient of either 70-95% or 60-95% (Mobile Phase A: 5 mM ammonium formate in 50:50:1 H2O:MeOH:formic acid; Mobile Phase B: 5 mM ammonium formate in 100:1 MeOH:formic acid) over 1.3 min at 1.2 mL/min (column temperature 55° C.). Detection was based on electrospray ionization (ESI) in positive mode using a Sciex API5500 Mass Spectrometer.
as §2, §3, §4
The expression of hEPO and lipid levels in the liver and spleen in rats intravenously administered a nanoparticle composition at a dose of 0.2 mpk was measured at various timepoints. Compounds 18 and 25 were selected for comparison with MC3. Lipids were formulated according to the standard MC3 formulation described above. Rats were administered intravenously a single 0.2 mpk dose and expression monitored at 0.25, 0.5, 1, 2, 4, 8, 24, and 48 hours after administration.

CCCCCCCCCOC(=O)CCCCCCCN(CCO)CCCCCCCC(=O)OC(CCCCCCCC)CCCCCCCC [Compound 18, Heptadecan-9-yl 8-((2-hydroxyethyl)(8-(nonyloxy)-8-oxooctyl)amino)octanoate] was tested, and the IL-6 [1] was 78.76, the “Cytokine expression (pg/ml) IL-6 (6 h)” value [1] was 10.16 pg/mL and the “Cytokine expression (pg/ml) IP-10 (6 h)” value [1] was 299.93 pg/mL. The hEPO expression ([2]; i.v., 0.2 mpk, 0.25 h) was 20227 pg/mL, the hEPO expression ([2]; i.v., 0.2 mpk, 0.5 h) was 20743 pg/mL and the hEPO expression ([2]; i.v., 0.2 mpk, 1 h) was 194353 pg/mL. It also gave a hEPO expression ([2]; i.v., 0.2 mpk, 2 h) of 238107 pg/mL, a hEPO expression ([2]; i.v., 0.2 mpk, 4 h) of 514807 pg/mL and a hEPO expression ([2]; i.v., 0.2 mpk, 8 h) of 915320 pg/mL. For the same compound, the hEPO expression ([2]; i.v., 0.2 mpk, 24 h) was 412051 pg/mL, the hEPO expression ([2]; i.v., 0.2 mpk, 48 h) was 52361 pg/mL and the “IP-10” value [3] was 517.3 pg/mL. The “Lipid level in liver” value ([4]; 0.25 h) was 5374 ng/g, the “Lipid level in spleen” value ([4]; 0.25 h) was 1230 ng/g and the “Lipid level in liver” value ([4]; 0.5 h) was 6023 ng/g. The “Lipid level in spleen” value ([4]; 0.5 h) was 2017 ng/g, the “Lipid level in liver” value ([4]; 1 h) was 6053 ng/g and the “Lipid level in spleen” value ([4]; 1 h) was 3213 ng/g. The “Lipid level in liver” value ([4]; 2 h) was 2037 ng/g, the “Lipid level in spleen” value ([4]; 2 h) was 3070 ng/g and the “Lipid level in liver” value ([4]; 4 h) was 839 ng/g. For the same compound, the “Lipid level in spleen” value ([4]; 4 h) was 3770 ng/g, the “Lipid level in liver” value ([4]; 8 h) was 296 ng/g and the “Lipid level in spleen” value ([4]; 8 h) was 1345 ng/g. For the same compound, the “Lipid level in liver” value ([4]; 24 h) was 5 ng/g, the “Lipid level in spleen” value ([4]; 24 h) was 271 ng/g and the “Lipid level in liver” value ([4]; 48 h) was 5374 ng/g. For the same compound, the “Lipid level in spleen” value ([4]; 48 h) was 92 ng/g and the “% Lipid Remaining in liver, 48 h* 2 mpk” value ([4]; rats, 48 h) was 0.018%.
In the case of CCCCCCCCCCCOC(=O)CCCCCN(CCO)CCCCCCCC(=O)OC(CCCCCCCC)CCCCCCCC [Compound 25, Heptadecan-9-yl 8-((2-hydroxyethyl)(6-oxo-6-(undecyloxy)hexyl)amino)octanoate], the IL-6 [1] is reported as 233.45, the IP-10 [1] is reported as 1194.13 and the hEPO expression ([2]; i.v., 0.2 mpk, 0.25 h) is reported as 0 pg/mL. It also gave a hEPO expression ([2]; i.v., 0.2 mpk, 0.5 h) of 19553 pg/mL, a hEPO expression ([2]; i.v., 0.2 mpk, 1 h) of 434299 pg/mL and a hEPO expression ([2]; i.v., 0.2 mpk, 2 h) of 2042807 pg/mL. For the same compound, the hEPO expression ([2]; i.v., 0.2 mpk, 4 h) was 3176560 pg/mL, the hEPO expression ([2]; i.v., 0.2 mpk, 8 h) was 2631633 pg/mL and the hEPO expression ([2]; i.v., 0.2 mpk, 24 h) was 869374 pg/mL. The hEPO expression ([2]; i.v., 0.2 mpk, 48 h) was 103089 pg/mL, the “IP-10” value [3] was 533.5 pg/mL and the “% Lipid Remaining in liver, 48 h* 2 mpk” value ([4]; rats, 48 h) was 1.32%.
In the case of CCCCCC=CCC=CCCCCCCCCC(CCCCCCCCC=CCC=CCCCCC)OC(=O)CCCN(C)C (centres unmarked) [MC3, heptatriaconta-6,9,28,31-tetraen-19-yl 4-(dimethylamino)butanoate, reference compound], the IL-6 [1] is reported as 124.42, the IP-10 [1] is reported as 504.90 and the “Cytokine expression (pg/ml) IL-6 (6 h)” value [1] is reported as 19.85 pg/mL. For the same compound, the “Cytokine expression (pg/ml) IP-10 (6 h)” value [1] was 117.94 pg/mL, the “hEPO expression” value ([2]; 6 h, 2 mpk, intravenous) was 1.33e+07 pg/mL and the hEPO expression ([2]; i.v., 0.2 mpk, 0.25 h) was 0 pg/mL. The hEPO expression ([2]; i.v., 0.2 mpk, 0.5 h) was 42457 pg/mL, the hEPO expression ([2]; i.v., 0.2 mpk, 1 h) was 93720 pg/mL and the hEPO expression ([2]; i.v., 0.2 mpk, 2 h) was 524093 pg/mL. The hEPO expression ([2]; i.v., 0.2 mpk, 4 h) was 601307 pg/mL, the hEPO expression ([2]; i.v., 0.2 mpk, 8 h) was 1536833 pg/mL and the hEPO expression ([2]; i.v., 0.2 mpk, 24 h) was 703619 pg/mL. The hEPO expression ([2]; i.v., 0.2 mpk, 48 h) was 64687 pg/mL, the “Lipid/MC3 hEPO conc. ratio 0.2 mpk” value ([2]; rats, intravenous, 0.2 mpk, 6 hours) was 1 and the “Lipid/MC3 hEPO conc. ratio 2 mpk” value ([2]; rats, intravenous, 2 mpk, 6 hours) was 1. For the same compound, the “IP-10” value [3] was 688.3 pg/mL, the “% Lipid Remaining in liver, 48 h* 2 mpk” value ([4]; rats, 48 h) was 87% and the “remained in the liver after 48 hours” value ([4]; rats, intravenous, 48 hours) was “greater than 60%”.
